Measured values taken from patent publication US20250282757A1, “ARYL ETHER-SUBSTITUTED HETEROCYCLIC COMPOUNDS AS GLP1R AGONISTS” (MINDRANK AI LTD., priority 2021, published 2025).

What was measured:
GLP-1R = GLP-1R (Homo sapiens, UniProt P43220); test: Agonist activity on GLP-1R, HTRF cAMP detection in stably transfected GLP-1R/HEK293 cells; type: cell-based; conditions: for EC50: 30 min incubation; for Max activity: relative to top concentration of reference GLP-1(7-37)
[1] = Pharmacokinetic study in mice; type: in vivo, CD-1 mice; conditions: for clearance rate compared with PF-06882961 / exposure compared with PF-06882961: mice; for half-life: read-out: T½ (converted); for Vd: read-out: Vdss
Description: The pharmacokinetic properties of some compounds of the present invention were evaluated in mice pharmacokinetic experiments. SPF male CD-1 mice from Beijing Vital River Laboratory Animal Technology Co., Ltd were used with 6 mice in each group. Compounds were dissolved in 10% solutol/90% saline. A single intravenous administration was given at a dose of 1 mg/kg in a volume of 1 mL/kg. A single intragastric administration was given at a dose of 5 mg/kg in a volume of 1 mL/kg. Animals were fasted overnight prior to the administration and resumed feeding 4 hours after administration, ad libitum to water. Blood was collected at 0.0830, 0.25, 0.5, 1, 2, 4, 6, 8 and 24 hours after dosing. About […] of whole blood was collected from the saphenous vein of animals and placed in an EDTA-K2 anticoagulation tube. The samples were centrifuged at 4° C. and 4200 rpm for 5 min, and the plasma was transferred into a centrifuge tube and stored at −80° C. until analysis. For plasma sample analysis, the test compounds and internal standards (Labetalol & tolbutamide & Verapamil & dexamethasone & glyburide & Celecoxib) were extracted from mice plasma by protein precipitation method with acetonitrile, and the extracts were analyzed by LC/MS/MS. The measured plasma concentration-time data of individual animals were analyzed with the non-compartmental model of Phoenix WinNonlin 7.0 (Pharsight, USA) software, and the pharmacokinetic parameters of mice were obtained as follows: maximum (peak) plasma drug concentration Cmax; Peak time Tmax; half-life T1/2 and area under the plasma concentration-time curve extrapolated to infinity AUC0-inf.

[2] = Pharmacokinetic study in monkeys; type: in vivo, cynomolgus monkeys; conditions: for half-life: read-out: T½ (converted); for Vd: read-out: Vdss; for clearance rate compared with PF-06882961 / exposure compared with PF-06882961 / half-life compared with PF-06882961: monkeys
Description: The pharmacokinetic properties of compounds of the present invention were evaluated in monkey pharmacokinetic experiments with 3 male Non-naive cynomolgus monkeys per group. Compounds were dissolved in 10% solutol/90% saline. For single intravenous administration, the dose was 1 mg/kg, and the administration volume was 1 mL/kg. For single intragastric administration, the dose was 5 mg/kg, and the administration volume was 1 mL/kg. Animals were fasted overnight with free water before the experiment and resumed feeding 4 hours after administration. Blood was collected at 0.0830, 0.25, 0.5, 1, 2, 4, 6, 8 and 24 hours after dosing. About 0.4 mL of whole blood was collected from the animal's forearm vein and placed in an EDTA-K2 anticoagulant tube. The samples were centrifuged at 4° C. and 4200 rpm for 5 min, and the plasma was transferred to a centrifuge tube and stored at −80° C. until analysis. For plasma sample analysis, the test compounds and internal standards (Labetalol & tolbutamide & Verapamil & dexamethasone & glyburide & Celecoxib) were extracted from monkey plasma by protein precipitation method with acetonitrile, and the extracts were analyzed by LC/MS/MS. Measured plasma concentration-time data in individual animals were analyzed using the non-compartmental model of Phoenix WinNonlin 7.0 (Pharsight, USA) software to obtain the following pharmacokinetic parameters: maximum (peak) plasma drug concentration Cmax; time to peak Tmax; Half-life T1/2 and area under the plasma concentration-time curve extrapolated to infinity AUC0-inf.

cynomolgus monkeys = test: Intravenous glucose tolerance (IVGTT) experiment in cynomolgus monkey; type: in vivo; conditions: for effect on blood glucose compared with PF-06882961: 100 mg/kg po, IVGTT
Description: The compounds were dissolved in 10% Solutol HS15+90% Saline by vortex ultrasound. Vehicle was 10% Solutol HS15+90% Saline.
Male cynomolgus monkeys, 10-15 years old, weighing 6-13 kg. Healthy animals were selected for efficacy studies according to alanine aminotransferase (ALT), aspartate aminotransferase (AST), triglyceride (TG), total cholesterol (TC), high density lipoprotein (HDL), low density lipoprotein (LDL), glycosylated hemoglobin (HbA1c), body weight (BW).
After 1 week of acclimation, the IVGTT baseline before administration was measured, and the animals were grouped according to the insulin and blood glucose results of the IVGTT. The detailed information of treatment was as follows:
IVGTT was started after 2 hours post of compound dosing. Blood were collected-at −15 min, 0 min (before sugar administration), and 2, 5, 7, 10, 20, and 30 min after sugar administration. And the blood glucose level were measured.
Data was analyzed by Graphpad Prism 6 and the statistical method was one-way ANOVA Dunnett's test. Compared with the vehicle group, p<0.05 was considered significant difference. * means p<0.05, ** means p<0.01, *** means p<0.001.

h-GLP1-R C57BL6J mice = test: Intraperitoneal glucose tolerance (IPGTT) test in h-GLP1-R C57BL6J mice; type: in vivo
Description: The compounds to be tested were dissolved in 10% Solutol HS15+90% Saline, and vortexed by ultrasonic to dissolve.
Male SPF h-GLP1-R C57BL6J mice, 6-9 weeks old, weighing 20 g-25 g.
Upon arrival, animals were acclimated for 7 days before experiments. The body weight and random blood sugar of the animals were measured one day before administration. Animals were divided into 4 groups based on body weight and random blood glucose.
Mice were overnight fasted before IPGTT. Baseline fasting blood glucose and insulin level were measured before vehicle or compound dosing. 30 min post of compound dosing, glucose were injected intraperitoneally (2 g/kg, 10 ml/kg). Blood glucose levels were measured at −30, 0, 15, 30, 60, 120 min. Plasma 15 ul were collected at 0 and 15 min for insulin analysis by Rat/Mouse Insulin Elisa Kit.
AUC0-120min was the area under the blood glucose-time curve. Insulin change was the difference between 15 min and 0 min plasma insulin concentration. Statistical analysis of data was performed with Graphpad Prism 6, and the statistical method was one-way ANOVA Dunnett test. Compared with the vehicle group, p<0.05 was considered a significant difference. * means p<0.05, ** means p<0.01, *** means p<0.001.

[3] = mouse, plasma, male CD-1 mice, 1 mg/kg iv
[4] = mouse, plasma, male CD-1 mice, 1 mg/kg iv, read-out: AUC0-inf
[5] = mouse, plasma, male CD-1 mice, 5 mg/kg po, read-out: AUC0-inf
[6] = mouse, plasma, male CD-1 mice, 5 mg/kg po, read-out: Cmax
[7] = mouse, plasma, male CD-1 mice, 5 mg/kg po
[8] = cynomolgus monkey, plasma, male cynomolgus monkeys, 1 mg/kg iv
[9] = cynomolgus monkey, plasma, male cynomolgus monkeys, 1 mg/kg iv, read-out: AUC0-inf
[10] = cynomolgus monkey, plasma, male cynomolgus monkeys, 5 mg/kg po, read-out: AUC0-inf
[11] = cynomolgus monkey, plasma, male cynomolgus monkeys, 5 mg/kg po, read-out: Cmax
[12] = cynomolgus monkey, plasma, male cynomolgus monkeys, 5 mg/kg po
[13] = male cynomolgus monkeys, 5 mg/kg po
[14] = single oral dose of 100 mg/kg, IVGTT 2 hours after dosing
[15] = male cynomolgus monkeys, 1 mg/kg iv

GLP-1R, sequence (P43220 24-463): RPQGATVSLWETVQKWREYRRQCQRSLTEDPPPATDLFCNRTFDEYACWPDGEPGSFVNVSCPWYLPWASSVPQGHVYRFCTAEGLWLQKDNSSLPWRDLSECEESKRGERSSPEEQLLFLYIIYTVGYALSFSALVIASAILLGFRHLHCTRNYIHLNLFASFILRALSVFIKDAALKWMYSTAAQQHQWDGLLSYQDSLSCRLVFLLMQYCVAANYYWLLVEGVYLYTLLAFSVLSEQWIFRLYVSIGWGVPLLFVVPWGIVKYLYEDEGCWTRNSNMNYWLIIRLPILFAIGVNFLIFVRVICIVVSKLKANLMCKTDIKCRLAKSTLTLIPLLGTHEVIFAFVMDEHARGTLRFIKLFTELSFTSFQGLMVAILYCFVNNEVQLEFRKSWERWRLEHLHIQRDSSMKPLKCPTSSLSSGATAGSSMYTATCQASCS

SMILES | EC50 (GLP-1R) [nM] | Max activity (GLP-1R) [%] | F ([1]; male CD-1 mice, 5 mg/kg po) [%] | clearance rate compared with PF-06882961 [1] | exposure compared with PF-06882961 [1] | clearance [1, 3] [L/h/kg] | AUC(0-inf) [1, 4] [µg·h/mL] | half-life [1, 3] [h] | Vd [1, 3] [L/kg] | AUC(0-inf) [1, 5] [µg·h/mL] | Cmax [1, 6] [µg/mL] | half-life [1, 7] [h] | clearance [2, 8] [L/h/kg] | AUC(0-inf) [2, 9] [µg·h/mL] | half-life [2, 8] [h] | Vd [2, 8] [L/kg] | AUC(0-inf) [2, 10] [µg·h/mL] | Cmax [2, 11] [µg/mL] | F [2, 13] [%] | blood glucose level in IVGTT (cynomolgus monkeys; [14]) | further results
O=C(O)c1ccc2nc(CN3CCC(Oc4cccc(COc5ccc(Cl)cc5F)n4)CC3)n(C[C@@H]3CCO3)c2c1 [Compound 49, (S)-2-((4-((6-((4-chloro-2-fluorophenoxy)methyl)pyridin-2-yl)oxy)piperidin-1-yl)methyl)-1-(oxetan-2-ylmethyl)-1H-benzo[d]imidazole-6-carboxylic acid] | 0.193 | 129.3 | 20.7 | lower clearance rates | higher exposure | 0.72 | 1.35 | 1 | 1 | 1.76 | 0.515 | 3.2 | 0.436 | 2.38 | 1.34 | 0.29 | 1.24 | 0.235 | 10.4 | significantly lower the blood glucose level | half-life [2, 12]: 4.01 h; clearance rate compared with PF-06882961 [2]: lower clearance rates; exposure compared with PF-06882961 [2]: higher exposure; half-life compared with PF-06882961 [2]: greater; blood glucose level in IVGTT (cynomolgus monkeys; 60 mg/kg po dose group): significant hypoglycemic effect; effect on blood glucose compared with PF-06882961 (cynomolgus monkeys): slightly more effective
N#Cc1ccc(OCc2cccc(OC3CCN(Cc4nc5ccc(C(=O)O)cc5n4C[C@@H]4CCO4)CC3)n2)c(F)c1 [Compound 55, (S)-2-((4-((6-((4-cyano-2-fluorophenoxy)methyl)pyridin-2-yl)oxy)piperidin-1-yl)methyl)-1-(oxetan-2-ylmethyl)-1H-benzo[d]imidazole-6-carboxylic acid] | 0.149 | 111.5 | 32.7 | lower clearance rates | higher exposure | 1.57 | 0.637 | 1.5 | 1.3 | 1.04 | 0.483 | 1.7 | 0.72 | 1.43 | 2.2 | 0.4 | 0.614 | 0.214 | 8.6 | significantly lower the blood glucose level | half-life [2, 12]: 5.4 h; clearance rate compared with PF-06882961 [2]: lower clearance rates; exposure compared with PF-06882961 [2]: higher exposure; half-life compared with PF-06882961 [2]: greater; Insulin change (15 min minus 0 min plasma insulin) (h-GLP1-R C57BL6J mice; 0.3 mpk po): significantly increase insulin secretion; AUC0-120min (area under the blood glucose-time curve) (h-GLP1-R C57BL6J mice; 0.3 mpk po, compared with the vehicle group): significant difference compared with the vehicle group; blood glucose during IPGTT (h-GLP1-R C57BL6J mice; single oral dose 0.3 mg/kg, glucose 2 g/kg ip 30 min after dosing): significantly reduced the blood glucose; effect on blood glucose compared with PF-06882961 (cynomolgus monkeys): equivalent
N#Cc1ccc(OCc2cccc(OC3CCN(Cc4nc5c(F)cc(C(=O)O)cc5n4C[C@@H]4CCO4)CC3)n2)c(F)c1 [Compound 56, (S)-2-((4-((6-((4-cyano-2-fluorophenoxy)methyl)pyridin-2-yl)oxy)piperidin-1-yl)methyl)-4-fluoro-1-(oxetan-2-ylmethyl)-1H-benzo[d]imidazole-6-carboxylic acid] | 0.21 | 124.9 | 54.4 | lower clearance rates | higher exposure | 1.3 | 0.771 | 2.3 | 1.2 | 2.1 | 1.64 | 1 |  |  |  |  |  |  |  |  | 
O=C(O)c1cc(F)c2nc(CN3CCC(Oc4cccc(COc5ccc(Cl)cc5F)n4)CC3)n(C[C@@H]3CCO3)c2c1 [Compound C23, (S)-2-((4-((6-((4-chloro-2-fluorophenoxy)methyl)pyridin-2-yl)oxy)piperidin-1-yl)methyl)-4-fluoro-1-(oxetan-2-ylmethyl)-1H-benzo[d]imidazole-6-carboxylic acid] | 0.249 | 109.1 | 45.1 | lower clearance rates | higher exposure | 0.9 | 1.14 | 1 | 1 | 2.58 | 2.19 | 1.4 |  |  |  |  |  |  |  |  | 
N#Cc1ccc(COc2cccc(C3CCN(Cc4nc5ccc(C(=O)O)cc5n4C[C@@H]4CCO4)CC3)n2)c(F)c1 [PF-06882961, reference compound] |  |  | 19.8 |  |  |  |  |  |  |  |  |  |  |  |  |  |  |  | 5.9 | significantly lower the blood glucose level | AUC(0-inf) ([1]; male CD-1 mice, 1 mg/kg iv): 0.37 µg·h/mL; Cl ([1]; male CD-1 mice, 1 mg/kg iv): 2.71 L/h/kg; T½ ([1]; male CD-1 mice, 1 mg/kg iv): 0.3 h; Vdss ([1]; male CD-1 mice, 1 mg/kg iv): 1 L/kg; AUC(0-inf) ([1]; male CD-1 mice, 5 mg/kg po): 0.366 µg·h/mL; Cmax ([1]; male CD-1 mice, 5 mg/kg po): 0.299 µg/mL; T½ ([1]; male CD-1 mice, 5 mg/kg po): 2.0 h; AUC(0-inf) [2, 15]: 1.167 µg·h/mL; Cl [2, 15]: 0.864 L/h/kg; T½ [2, 15]: 1.1 h; Vdss [2, 15]: 0.3 L/kg; AUC(0-inf) [2, 13]: 0.344 µg·h/mL; Cmax [2, 13]: 0.0588 µg/mL; T½ [2, 13]: 2.8 h
